# ChEMBL document CHEMBL1144533, “Synthesis and evaluation of 2-{[2-(4-hydroxyphenyl)-ethyl]amino}pyrimidine-5-carboxamide derivatives as novel STAT6 inhibitors” (Bioorg Med Chem, 2007)
# The source made the active and inactive calls. No cut-off for these calls is given here.
# Tests used:
# [1] = target: T1, Signal transducer and activator of transcription 6 (Homo sapiens, UniProt P42226); assay: Inhibition of STAT6 in human IL4-stimulated FW4 cells
# T1 sequence (P42226 whole entry): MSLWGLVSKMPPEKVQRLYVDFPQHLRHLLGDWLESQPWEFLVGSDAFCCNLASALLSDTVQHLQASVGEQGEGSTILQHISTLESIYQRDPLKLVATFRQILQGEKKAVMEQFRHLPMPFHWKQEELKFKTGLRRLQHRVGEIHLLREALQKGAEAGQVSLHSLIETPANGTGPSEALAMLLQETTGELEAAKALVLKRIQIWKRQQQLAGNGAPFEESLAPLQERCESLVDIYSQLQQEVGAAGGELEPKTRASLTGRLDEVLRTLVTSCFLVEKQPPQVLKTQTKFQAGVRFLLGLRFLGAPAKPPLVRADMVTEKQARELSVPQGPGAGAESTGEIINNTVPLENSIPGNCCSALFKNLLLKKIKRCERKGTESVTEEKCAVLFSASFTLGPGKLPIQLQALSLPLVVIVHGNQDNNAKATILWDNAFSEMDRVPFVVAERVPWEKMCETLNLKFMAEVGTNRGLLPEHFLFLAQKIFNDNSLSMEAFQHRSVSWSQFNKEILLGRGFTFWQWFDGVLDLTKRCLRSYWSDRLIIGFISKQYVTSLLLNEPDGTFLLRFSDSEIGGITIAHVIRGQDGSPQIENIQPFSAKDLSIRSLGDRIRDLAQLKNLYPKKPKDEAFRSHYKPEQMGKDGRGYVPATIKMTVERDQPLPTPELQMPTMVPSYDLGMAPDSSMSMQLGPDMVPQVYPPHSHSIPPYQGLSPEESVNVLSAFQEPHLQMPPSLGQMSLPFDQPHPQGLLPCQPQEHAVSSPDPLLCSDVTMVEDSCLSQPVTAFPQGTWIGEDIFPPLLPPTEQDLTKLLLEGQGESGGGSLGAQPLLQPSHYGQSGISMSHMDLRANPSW
# [2] = target: T2, Signal transducer and activator of transcription 6 (Homo sapiens) (UniProt P42226); assay: Inhibition of STAT6 in human IL4-stimulated FW4 cells at 10 uM
# T2 sequence (whole entry): T1 sequence (P42226 whole entry)
# T-cell [3] = assay: Effect on differentiation of C57BL/6 mouse T cells assessed as inhibition of IL12-induced TFN-gamma production; type: functional, cell-based
# T-cell [4] = assay: Effect on differentiation of C57BL/6 mouse T cells assessed as inhibition of IL4 production; type: functional, cell-based; settings: C57BL/6, T-cell
IC50 [1],SMILES,also measured
30 nM,CNC(=O)c1cnc(NCCc2ccc(O)c(Cl)c2)nc1NCc1ccccc1,–
83 nM,Cc1cccc(Nc2nc(NCCc3ccc(O)c(Br)c3)ncc2C(N)=O)c1,–
100 nM,NC(=O)c1cnc(NCCc2ccc(O)cc2)nc1NC1CCCCC1,–
–,Cc1cccc(Nc2nc(NCCCc3ccc(O)cc3)ncc2C(N)=O)c1,inhibition [2]: 23%
380 nM,CCNC(=O)c1cnc(NCCc2ccc(O)cc2)nc1Nc1cccc(C)c1,–
130 nM,Cc1cccc(Nc2nc(NCCc3ccc(O)c(C)c3)ncc2C(N)=O)c1,–
1100 nM,Cc1cccc(Nc2nc(NCCc3ccc(O)cc3)ncc2C(=O)NC(C)C)c1,–
8200 nM,Cc1cccc(Nc2nc(NCCc3ccc(O)cc3)ncc2C(=O)N(C)C)c1,–
–,Cc1cccc(Nc2nc(NCCc3ccccc3O)ncc2C(N)=O)c1,inhibition [2]: 15%
660 nM,COc1cc(CCNc2ncc(C(N)=O)c(Nc3cccc(C)c3)n2)ccc1O,–
21 nM,NC(=O)c1cnc(NCCc2ccc(O)c(Cl)c2)nc1NCc1ccccc1,Activity (T-cell [3]): inactive; IC50 (T-cell [4]): 2.3 nM
–,Cc1cccc(Nc2nc(NCc3ccc(O)cc3)ncc2C(N)=O)c1,inhibition [2]: 19%
64 nM,Cc1cccc(Nc2nc(NCCc3ccc(O)c(F)c3)ncc2C(N)=O)c1,–
–,COc1ccc(CCNc2ncc(C(N)=O)c(Nc3cccc(C)c3)n2)cc1,inhibition [2]: 49%
190 nM,Cc1cccc(Nc2nc(NCCc3ccc(O)cc3)ncc2C(N)=O)c1,Activity (T-cell [3]): inactive; IC50 (T-cell [4]): 14 nM
410 nM,NC(=O)c1cnc(NCCc2ccc(O)cc2)nc1Nc1ccccc1,–
88 nM,NC(=O)c1cnc(NCCc2ccc(O)cc2)nc1NCc1ccccc1,–
3000 nM,Cc1cccc(Nc2nc(NCCc3cccc(O)c3)ncc2C(N)=O)c1,–
170 nM,CNC(=O)c1cnc(NCCc2ccc(O)cc2)nc1Nc1cccc(C)c1,–
–,Cc1cccc(Nc2nc(NCCc3ccccc3)ncc2C(N)=O)c1,inhibition [2]: 16%
45 nM,Cc1cccc(Nc2nc(NCCc3ccc(O)c(Cl)c3)ncc2C(N)=O)c1,–
–,Cc1cccc(Nc2nc(CCCc3ccc(O)cc3)ncc2C(N)=O)c1,inhibition [2]: 32%
